ChEMBL document CHEMBL1201862, “PubChem BioAssay data set” (2004)
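All cell lines were grown in 96-well plates and treated with compound for 48 hours. The concentration for 50% growth inhibition is given as GI50.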 Active and inactive are the calls of the source. Cut-off read from the data, not from the text of the source: active = GI50 up to about 1.1 µM and inactive = higher.

Assays:
Assay in all cases: growth of human tumour cells (NCI), 48 h
KM12 = test system: KM12
SF-295 = test system: SF-295
K562 = test system: K562
HCC 2998 = test system: HCC 2998
UACC-62 = test system: UACC-62
786-0 = test system: 786-0
ACHN = test system: ACHN
HCT-116 = test system: HCT-116
HOP-62 = test system: HOP-62
A498 = test system: A498
HT-29 = test system: HT-29
SK-MEL-5 = test system: SK-MEL-5
COLO 205 = test system: COLO 205
SW-620 = test system: SW-620
SK-MEL-2 = test system: SK-MEL-2
CCRF-CEM = test system: CCRF-CEM
NCI-H460 = test system: NCI-H460

Measured: GI50

FC(F)(F)c1nc2ccc3[nH]c4c(-c5ccccc5)nccc4c3c2[nH]1
inactive: KM12 > 100 µM | SF-295 > 100 µM | K562 > 56.9 µM | HCC 2998 > 100 µM | UACC-62 > 100 µM | 786-0 > 100 µM | ACHN > 100 µM | HCT-116 > 74.5 µM | HOP-62 > 100 µM | A498 > 100 µM | HT-29 > 100 µM | SK-MEL-5 > 100 µM | COLO 205 > 100 µM | SW-620 > 100 µM | SK-MEL-2 > 100 µM | CCRF-CEM > 45.7 µM | NCI-H460 > 80 µM

C/C(CN1C(=O)c2ccccc2C1=O)=N\NS(=O)(=O)c1ccc(Cl)cc1
inactive: KM12 > 100 µM | SF-295 > 100 µM | K562 > 100 µM | HCC 2998 > 100 µM | UACC-62 > 100 µM | 786-0 > 100 µM | ACHN > 100 µM | HCT-116 > 100 µM | HOP-62 > 100 µM | A498 > 100 µM | HT-29 > 100 µM | SK-MEL-5 > 100 µM | COLO 205 > 100 µM | SW-620 > 100 µM | SK-MEL-2 > 100 µM | CCRF-CEM > 100 µM | NCI-H460 > 100 µM

Cc1nc2ccccc2c(=O)n1/N=C(\N=N\c1cc(Cl)ccc1Cl)c1cccc(-c2ccco2)c1
inactive: KM12 82.6 µM | SF-295 > 100 µM | K562 > 10 µM | HCC 2998 > 100 µM | UACC-62 48.1 µM | 786-0 > 100 µM | ACHN 73.6 µM | HCT-116 53.3 µM | HOP-62 > 100 µM | A498 > 100 µM | HT-29 > 100 µM | SK-MEL-5 96.4 µM | COLO 205 > 100 µM | SW-620 > 100 µM | SK-MEL-2 84.5 µM | CCRF-CEM > 10 µM | NCI-H460 > 100 µM

CC1(Cl)C(=O)NC(=O)N([C@H]2C[C@H](O)[C@@H](CO)O2)C1N=[N+]=[N-] (stereo partly specified)
inactive: KM12 > 100 µM | SF-295 > 100 µM | K562 > 100 µM | HCC 2998 > 100 µM | UACC-62 > 100 µM | 786-0 > 100 µM | ACHN > 100 µM | HCT-116 > 100 µM | HOP-62 > 100 µM | A498 > 100 µM | HT-29 > 100 µM | SK-MEL-5 > 100 µM | COLO 205 > 100 µM | SW-620 > 100 µM | SK-MEL-2 > 100 µM | CCRF-CEM > 100 µM | NCI-H460 > 100 µM

COc1ccc(CC2NCCc3c2[nH]c2ccccc32)cc1 (stereo unspecified)
inactive: KM12 58.1 µM | SF-295 96.6 µM | K562 32.6 µM | HCC 2998 23.7 µM | UACC-62 > 100 µM | 786-0 > 100 µM | ACHN 66.8 µM | HCT-116 40 µM | HOP-62 > 100 µM | A498 > 100 µM | HT-29 28.3 µM | SK-MEL-5 40.9 µM | COLO 205 17.4 µM | SW-620 51.9 µM | SK-MEL-2 > 100 µM | CCRF-CEM 46.2 µM | NCI-H460 35.6 µM

COc1c(C2=NC(C(C)C)CO2)ccc2ccccc12 (stereo unspecified)
inactive: KM12 28.1 µM | SF-295 26.7 µM | K562 15.1 µM | HCC 2998 23.7 µM | UACC-62 49 µM | 786-0 45.9 µM | ACHN 42.6 µM | HOP-62 47.8 µM | A498 27.3 µM | HT-29 24.3 µM | SK-MEL-5 14.2 µM | COLO 205 41.2 µM | SW-620 45 µM | SK-MEL-2 65.5 µM | CCRF-CEM 15.3 µM | NCI-H460 9.25 µM
